As a reminder, the IC50 is the point on the concentration scale where inhibition reaches its midpoint.

The target of this test is USP30 (Homo sapiens (Human), UniProt Q70CQ3). The test can be described thus: USP30 biochemical IC50 assay. Conditions: fluorescence polarisation, TAMRA labelled peptide linked to ubiquitin; 30 min pre-incubation, 2 hr read; read-out: IC50 range. How it is done: USP30 Biochemical IC50 Assay
Sequence of USP30 (Q70CQ3 57-517): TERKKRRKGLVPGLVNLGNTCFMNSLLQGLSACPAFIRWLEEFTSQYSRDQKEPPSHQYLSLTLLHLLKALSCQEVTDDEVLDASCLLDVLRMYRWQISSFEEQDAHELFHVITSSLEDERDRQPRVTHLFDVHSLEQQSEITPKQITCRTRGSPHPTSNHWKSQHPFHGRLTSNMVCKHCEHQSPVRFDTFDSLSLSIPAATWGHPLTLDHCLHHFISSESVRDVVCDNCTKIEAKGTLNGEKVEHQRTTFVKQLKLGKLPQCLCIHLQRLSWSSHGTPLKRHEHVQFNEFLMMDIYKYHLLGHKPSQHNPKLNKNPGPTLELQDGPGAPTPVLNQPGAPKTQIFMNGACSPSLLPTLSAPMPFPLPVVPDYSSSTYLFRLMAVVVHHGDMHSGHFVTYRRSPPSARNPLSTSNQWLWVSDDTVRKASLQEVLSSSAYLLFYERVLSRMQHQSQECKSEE
Dilution plates were prepared at 21 times the final concentration (2100 μM for a final concentration of 100 μM) in 50% DMSO in a 96-well polypropylene V-bottom plate (Greiner #651201). A typical 8-point dilution series to be 100, 30, 10, 3, 1, 0.3, 0.1, 0.03 μM final. Reactions were performed in duplicate in black 384 well plates (small volume, Greiner 784076) in a final reaction volume of 21 μl. Either 1 μl of 50% DMSO or diluted compound was added to the plate. USP30 was diluted in reaction buffer (40 mM Tris, pH 7.5, 0.005% Tween 20, 0.5 mg/ml BSA, 5 mM beta-mercaptoethanol) to the equivalent of 0.05 μl/well and 10 μl of diluted USP30 was added to the compound. Enzyme and compound were incubated for 30 min at room temp. Reactions were initiated by the addition of 50 nM of TAMRA labelled peptide linked to ubiquitin via an iso-peptide bond as fluorescence polarisation substrate. Reactions were read immediately after addition of substrate and following a 2 hr incubation at room temperature. Readings were performed on a Pherastar Plus (BMG Labtech). λ Excitation 540 nm; λ Emission 590 nm.
(In fluorescence polarisation assays a small probe gives low polarisation when free and higher when bound to something large.)
As to `Cc1oncc1-c1ccc2nc(NC(C)C3CCN(C#N)C3)sc2c1` (stereo not drawn) [Example 48, 3-(1-((6-(5-Methylisoxazol-4-yl)benzo[d]thiazol-2-yl)amino)ethyl)pyrrolidine-1-carbonitrile], the concentration for half-maximal inhibition (IC50) lay within 100 to 1000 nM. Next, `CC(Nc1nc2ccc(-c3cn[nH]c3)cc2s1)C1CCN(C#N)C1` (stereo not drawn) [Example 49, 3-(1-((6-(1H-Pyrazol-4-yl)benzo[d]thiazol-2-yl)amino)ethyl)pyrrolidine-1-carbonitrile]: 100 to 1000 nM; `CC(Nc1cc2ccccc2cn1)C1CCN(C#N)C1` (stereo not drawn) [Example 50, 3-(1-(Isoquinolin-3-ylamino)ethyl)pyrrolidine-1-carbonitrile]: 1000 to 10000 nM; `CC(Nc1cc2cc(C#N)ccc2cn1)C1CCN(C#N)C1` (stereo not drawn) [Example 51, 3-((1-(1-Cyanopyrrolidin-3-yl)ethyl)amino)isoquinoline-6-carbonitrile]: 1000 to 10000 nM. On to `N#CC(Nc1nc2ccccc2s1)C1CCN(C#N)C1` (stereo not drawn) [Example 52, 3-((Benzo[d]thiazol-2-ylamino)(cyano)methyl)pyrrolidine-1-carbonitrile], for which the concentration for half-maximal inhibition (IC50) was 100 to 1000 nM. The result for `CC(Nc1nc2ccc(C#N)cc2s1)C1CCN(C#N)C1` (stereo not drawn) [Example 53, 2-((1-(1-Cyanopyrrolidin-3-yl)ethyl)amino)benzo[d]thiazole-6-carbonitrile] reads 1000 to 10000 nM.

Regarding `N#CN1C[C@H]2CN(c3ncc(-c4ccccc4)s3)C(=O)[C@H]2C1` [Example 54, (3aR,6aS)-4-Oxo-5-(5-phenylthiazol-2-yl)hexahydropyrrolo[3,4-c]pyrrole-2(1H)-carbonitrile], the half-maximal inhibitory concentration (IC50) fell in the range of 1000 to 10000 nM. For the compound `N#CN1CC[C@H](CNC(=O)c2cc(-c3cccc(Cl)c3)no2)C1` [Example 55, (R)-3-(3-Chlorophenyl)-N-((1-cyanopyrrolidin-3-yl)methyl)isoxazole-5-carboxamide], the IC50 is less than 100 nM. Consider `N#CN1CC[C@H](CNC(=O)c2nc3ccccc3[nH]2)C1` [Example 56], for which the 50% inhibitory concentration (IC50) lay within 1000 to 10000 nM. Next, `N#CN1CC[C@H](CNC(=O)c2cc3ccccc3cn2)C1` [Example 57]: 1000 to 10000 nM; `N#CN1CC[C@H](CNC(=O)c2cc(-c3ccccc3)ccn2)C1` [Example 59]: 100 to 1000 nM; `N#CN1CC[C@H](CNC(=O)c2ccc(-c3ccccc3)cn2)C1` [Example 60]: 100 to 1000 nM.

Consider `N#CN1CC[C@H](CNC(=O)c2cn3ccc(Cl)cc3n2)C1` [Example 65, (R)-7-Chloro-N-((1-cyano-pyrrolidin-3-yl)methyl) imidazo[1,2-a] pyridine-2-carboxamide], for which the IC50 was in the range of 1000 to 10000 nM.

`N#Cc1cccc(-c2nnc(C(=O)NC[C@H]3CCN(C#N)C3)o2)c1` [Example 68, (R)-5-(3-Cyanophenyl)-N-((1-cyanopyrrolidin-3-yl)methyl)-1,3,4-oxadiazole-2-carboxamide]: the IC50 was less than 100 nM.

For `N#Cc1cccc(-c2nnc(C(=O)NC[C@@H]3CCN(C#N)C3)o2)c1` [Example 69, (S)-5-(3-Cyanophenyl)-N-((1-cyanopyrrolidin-3-yl)methyl)-1,3,4-oxadiazole-2-carboxamide], the half-maximal inhibitory concentration (IC50) was less than 100 nM. The result for `N#CN1CC[C@H](CNC(=O)c2cn(-c3ccccc3)cn2)C1` [Example 70, (R)—N-((1-Cyanopyrrolidin-3-yl)methyl)-1-phenyl-1H-imidazole-4-carboxamide] reads 1000 to 10000 nM; that for `N#Cc1cccc(-n2cnc(C(=O)NC[C@H]3CCN(C#N)C3)c2)c1` [Example 71, (R)-1-(3-Cyanophenyl)-N-((1-cyanopyrrolidin-3-yl)methyl)-1H-imidazole-4-carboxamide], less than 100 nM. Next, `COc1ccccc1-n1cnc(C(=O)NC[C@H]2CCN(C#N)C2)c1` [Example 73, (R)—N-((1-Cyanopyrrolidin-3-yl)methyl)-1-(2-methoxyphenyl)-1H-imidazole-4-carboxamide]: 100 to 1000 nM; `COc1cccc(-n2cnc(C(=O)NC[C@H]3CCN(C#N)C3)c2)c1` [Example 74, (R)—N-((1-Cyanopyrrolidin-3-yl)methyl)-1-(3-methoxyphenyl)-1H-imidazole-4-carboxamide]: 100 to 1000 nM. The result for `N#CN1CC[C@H](CNC(=O)c2cn3cc(-c4cn[nH]c4)ccc3n2)C1` [Example 75, (R)—N-((1-Cyanopyrrolidin-3-yl)methyl)-6-(H-pyrazol-4-yl)imidazo[1,2-a]pyridine-2-carboxamide] reads 1000 to 10000 nM. With `N#CN1CC[C@H](CNC(=O)c2cn3cc(-c4ccn[nH]4)ccc3n2)C1` [Example 76], the IC50 was 1000 to 10000 nM. The result for `N#CN1CC[C@H](CNC(=O)c2cn3ccc(C4CC4)cc3n2)C1` [Example 77, (R)—N-((1-Cyanopyrrolidin-3-yl)methyl)-7-cyclopropylimidazo[1,2-a]pyridine-2-carboxamide] reads 100 to 1000 nM. `N#CN1CC[C@H](CNC(=O)c2cn(Cc3ccccc3)cn2)C1` [Example 78, (R)-1-Benzyl-N-((1-cyanopyrrolidin-3-yl)methyl)-1H-imidazole-4-carboxamide]: the 50% inhibitory concentration (IC50) fell in the range of 100 to 1000 nM. The result for `N#CN1CC[C@H](CNC(=O)c2cn(CC3CC3)cn2)C1` [Example 79, (R)—N-((1-Cyanopyrrolidin-3-yl)methyl)-1-(cyclopropylmethyl)-1H-imidazole-4-carboxamide] reads 1000 to 10000 nM.

(Values after patent publication US11130748B2, “Compounds” (MISSION THERAPEUTICS LIMITED, priority 2015, dated 2021).)
